Key:
[1] = target: T1, human A2B receptor (Homo sapiens, UniProt P29275); test: Radioligand binding assay ([3H]-DPCPX competition), membranes of HEK293 stably expressing human A2B receptor; conditions: for selectivity for the A2B receptor relative to the A1, A2A, and A3 receptor: fold selectivity A2B over A1, A2A and A3 receptors
T1 construct: expressed in transfected cells; membranes prepared from the cells
T1 sequence (P29275 1-332): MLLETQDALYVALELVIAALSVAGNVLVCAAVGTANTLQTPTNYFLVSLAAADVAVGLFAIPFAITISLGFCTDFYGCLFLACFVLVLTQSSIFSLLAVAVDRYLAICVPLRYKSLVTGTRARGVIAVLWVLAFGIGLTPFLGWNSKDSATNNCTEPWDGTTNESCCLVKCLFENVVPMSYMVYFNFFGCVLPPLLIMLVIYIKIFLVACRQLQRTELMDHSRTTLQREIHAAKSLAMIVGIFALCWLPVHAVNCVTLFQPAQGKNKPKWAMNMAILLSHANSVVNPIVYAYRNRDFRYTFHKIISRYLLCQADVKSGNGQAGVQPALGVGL
Text: Materials. [^3H]—DPCPX [cyclopentyl-1,3-dipropylxanthine] (120 Ci/mmol) was purchased from New England Nuclear (Boston, Mass.). The adenosine deaminase and complete protease inhibitor cocktail tablets were purchased from Boehringer Mannheim Corp. (Indianapolis, Ind.). Cell culture reagents were from Life Technologies (Grass Island, N.Y.) except for serum that was from Hyclone (Logan, Utah).
Cell line. HEK293 stably expressing the human A2B receptor were used for radioligand binding assays. Cells were grown in DMEM Glutamax containing 10% FBS, 0.2 mg/ml G418 at 37° C. in 5% CO2/95% atmosphere.
Membrane Preparation. Cells were washed with cold PBS buffer twice, scraped off the plates, and centrifuged at 1000×g for 5 minutes. Cells were homogenized with ice-cold buffer of 5 mM Tris, pH 7.4, 5 mM EDTA, 5 mM EGTA, protease inhibitor cocktail tablets and incubated for 10 min on ice. The homogenate was centrifuged at 32,000×g for 30 min. The membranes were resuspended in buffer of 50 mM Tris, pH 7.4, 0.6 mM EDTA, 5 mM MgCl2, stored at −80° C. until use. Protein concentration was determined by the methods of Bradford.
Radioligand binding assay. Membranes were homogenized in buffer containing 10 mM HEPES-KOH, pH 7.4 containing 1.0 mM EDTA; 2 U/ml adenosine deaminase; and 0.1 mM Benzamidine and incubated for 30 min at room temperature. Dissociation constants of radioligand (Kd values) and maximum binding sites (Bmax) were determined in saturation binding experiments. Saturation binding assays were carried out in a reaction mixture containing 50 μl of membrane suspension, 25 μl of 4% DMSO, 25 μl of increasing amounts of radioligand, [^3H]—DPCPX (final concentration 1-200 nM). […] Nonspecific binding was measured in the presence of […] NECA. Compounds were dissolved in
DMSO and then diluted with 4% DMSO; the final maximum DMSO concentrations were 1%. […] Reactions were terminated by rapid filtration over GF/C filters using a cell harvester. The filters were washed ten times with 0.4 ml of ice-cold buffer containing 10 mM HEPES-KOH, pH 7.4. The filters were dried, covered with scintillation fluid and counted with a TopCount.

## CC(=O)NCCNc1nc(-c2ccccc2)nc2[nH]c(COC3CCN(CCc4ccccc4Cl)CC3)cc12 [17.7, N-[2-(6-{1-[2-(2-Chlorophenyl)ethyl]piperidin-4-yloxymethyl}-2-phenyl-7H-pyrrolo[2,3-d]pyrimidin-4-ylamino)ethyl]acetamide]
[1]; [3H]-DPCPX competition binding
  Ki: 5 nM
[1]; binding assays
  selectivity for the A2B receptor relative to the A1, A2A, and A3 receptor: 26 ×

## CC(=O)NCCNc1nc(-c2ccccc2)nc2[nH]c(COC3CCN(CCc4ccccc4Cl)CC3)cc12.CS(=O)(=O)O [17.7.MsOH, N-[2-(-6-{1-[2-(2-Chlorophenyl)ethyl]piperidine-4-yloxymethyl}-2-phenyl-7H-pyrrolo[2,3-d]pyrimidin-4-ylamino)ethyl]acetamide methanesulfonic acid salt]
[1]; binding assays
  selectivity for the A2B receptor relative to the A1, A2A, and A3 receptor: 24 ×

## CC(=O)NCCNc1nc(-c2ccccc2)nc2[nH]c(C(=O)N3CCN(c4ccc(F)cc4)CC3)cc12 [26.38, N-(2-{6-[4-(4-Fluorophenyl)-piperazine-1-carbonyl]-2-phenyl-7H-pyrrolo[2,3-d]pyrimidin-4-ylamino}-ethyl)-acetamide]
other
  melting point: 234 °C

## CC(=O)NCCNc1nc(-c2ccccc2)nc2[nH]c(C(=O)N3CCN(c4ccc(C(F)(F)F)cn4)CC3)cc12 [26.39, N-(2-{2-Phenyl-6-[4-(5-trifluoromethylpyridin-2-yl)-piperazine-1-carbonyl]-7H-pyrrolo[2,3-d]pyrimidin-4-ylamino}-ethyl)-acetamide]
other
  melting point: 270 to 273 °C

## COC1(c2ccccc2Cl)CCN(C(=O)c2cc3c(NCCNC(C)=O)nc(-c4ccccc4)nc3[nH]2)CC1 [26.42, N-(2-{6-[4-(2-Chlorophenyl)-4-methoxypiperidine-1-carbonyl]-2-phenyl-7H-pyrrolo[2,3-d]pyrimidin-4-ylamino}-ethyl)-acetamide]
[1]; binding assays
  selectivity for the A2B receptor relative to the A1, A2A, and A3 receptor: 57 ×
other
  melting point: 201 to 202 °C

## COC1(c2ccc(F)cc2)CCN(C(=O)c2cc3c(NCCNC(C)=O)nc(-c4ccccc4)nc3[nH]2)CC1 [26.48, N-(2-{6-[4-(4-Fluorophenyl)4-methoxypiperidine-1-carbonyl]-2-phenyl-7H-pyrrolo[2,3-d]pyrimidin-4-ylamino}-ethyl)-acetamide]
other
  melting point: 134 to 137 °C

## CC(=O)NCCNc1nc(-c2ccccc2)nc2[nH]c(C(=O)N3CCC4(CC3)CCN(Cc3ccccc3)C4=O)cc12 [26.49, N-{2-[6-(2-Benzyl-1-oxo-2,8-diazaspiro[4.5]decane-8-carbonyl)-2-pheny1-7H-pyrrolo[2,3-d]pyrimidin-4-ylamino]-ethyl}-acetamide]
other
  melting point: 140 °C (dec.)

## COC1(c2ccccc2Cl)CCN(C(=O)c2cc3c(NCCNC(=O)c4cc5c(NCCNC(C)=O)nc(-c6ccccc6)nc5[nH]4)nc(-c4ccccc4)nc3[nH]2)CC1 [26.51, 4-(2-Acetylaminoethylamino)-2-phenyl-7H-pyrrolo[2,3-d]pyrimidine-6-carboxylic acid (2-{6-[4-(2-chlorophenyl)-4-methoxypiperidine-1-carbonyl]-2-phenyl-7H-pyrrolo[2,3-d]pyrimidin-4-ylamino}-ethyl)-amide]
other
  melting point: 180 to 185 °C (dec.)

## CC(=O)NCCNc1nc(-c2ccccc2)nc2[nH]c(C(=O)N3CCC(Cc4ccccc4)CC3)cc12 [26.54, N-{2-[6-(4-Benzylpiperidine-1-carbonyl)-2-phenyl-7H-pyrrolo[2,3-d]pyrimidin-4-ylamino]-ethyl}-acetamide]
other
  melting point: 260 to 261 °C

## CC(=O)NCCNc1nc(-c2ccccc2)nc2[nH]c(C(=O)N3CCN(c4ccc(Cl)cc4)CC3)cc12 [26.71, N-(2-{6-[4-(4-Chlorophenyl)-piperazine-1-carbonyl]-2-phenyl-7H-pyrrolo[2,3-d]pyrimidin-4-ylamino}-ethyl)-acetamide]
[1]; binding assays, A2B vs A1, A2A, A3
  receptor profile in words (selectivity listing): A1/A2B dual antagonist
[1]; binding assays
  selectivity for the A2B receptor relative to the A1, A2A, and A3 receptor: 82 ×

## CC(=O)NCCNc1nc(-c2ccccc2)nc2[nH]c(C(=O)N3CCN(CCCc4ccc(Cl)cc4)CC3)cc12 [26.135, N-[2-(6-{4-[3-(4-Chlorophenyl)-propyl]-piperazine-1-carbonyl}-2-phenyl-7H-pyrrolo[2,3-d]pyrimidin-4-ylamino)-ethyl]-acetamide]
[1]; binding assays
  selectivity for the A2B receptor relative to the A1, A2A, and A3 receptor: 19 ×

## CC(=O)NCCNc1nc(-c2ccccc2)nc2[nH]c(C(=O)N3CCN(CCCc4ccc(Cl)cc4)CC3)cc12.CS(=O)(=O)O [26.135.MsOH, N-[2-(6-{4-[3-(4-Chlorophenyl)-propyl]-piperazine-1-carbonyl}-2-phenyl-7H-pyrrolo[2,3-d]pyrimidin-4-ylamino)-ethyl]-acetamide methanesulfonate salt]
[1]; binding assays
  selectivity for the A2B receptor relative to the A1, A2A, and A3 receptor: 17 ×

## CC(=O)NCCNc1nc(-c2ccccc2)nc2[nH]c(C(=O)N3CCC(C#N)(c4ccccc4Cl)CC3)cc12 [26.237, N-(2-{6-[4-(2-Chlorophenyl)-4-cyanopiperidine-1-carbonyl]-2-phenyl-7H-pyrrolo[2,3-d]pyrimidin-4-ylamino}-ethyl)-acetamide]
[1]; binding assays
  selectivity for the A2B receptor relative to the A1, A2A, and A3 receptor: 57 ×

## CC(=O)NCCNc1nc(-c2ccccc2)nc2[nH]c(C(=O)N3CCC(C#N)(c4ccccc4Cl)CC3)cc12.CS(=O)(=O)O [26.237.MsOH, N-(2-{6-[4-(2-Chlorophenyl)4-cyanopiperidine-1-carbonyl]-2-phenyl-7H-pyrrolo[2,3-d]pyrimidin-4-ylamino}-ethyl)-acetamide methanesulfonic acid salt]
[1]; binding assays
  selectivity for the A2B receptor relative to the A1, A2A, and A3 receptor: 33 ×

From US20030229067A1, “Pyrrolopyrimidine A2b selective antagonist compounds, their synthesis and use” (priority 2001, published 2003)
